Experimental data taken from ChEMBL document CHEMBL5038629, “Light-Triggered Fluorescence Self-Reporting Nitric Oxide Release from Coumarin Analogues for Accelerating Wound Healing and Synergistic Antimicrobial Applications” (J Med Chem, 2022).
Activity calls are given as the source filed them. The calls are words filed in the database; no cut-off is given here.

What was measured:
[1] = NO releasing activity assessed as increase in fluorescence intensity upon exposure to UV light at 0 to 18 uM by fluorescence based analysis; assay type: functional; details: dose 0-18 µM
[2] = NO releasing activity assessed as increase in fluorescence intensity at 420 nm upon exposure to UV light measured after 0 to 5 mins by fluorescence based analysis; assay type: functional; details: time 0-5 min
[3] = Photolysis of compound in DMSO/PBS assessed as 4-methyl-7-(2-nitrobenzylamino)-2H-chromen-2-one and AMC formation along with NO release upon exposure to UV light and measured after 30 mins by HPLC analysis; assay type: functional
[4] = Photolysis of compound in DMSO/PBS assessed as 4-methyl-7-(2-nitrobenzylamino)-2H-chromen-2-one and AMC formation along with NO release upon exposure to UV light by mass spectrometry; assay type: functional
[5] = system: HUVEC; assay: Cytotoxicity against human HUVEC cells assessed as reduction in cell viability upto 60 uM measured after 8 hrs by CCK8 assay; assay type: functional, cell-based; details: dose microM <=60, time 8.0 hrs
[6] = system: RAW264.7; assay: Cytotoxicity against mouse RAW264.7 cells assessed as reduction in cell viability upto 60 uM measured after 8 hrs by CCK8 assay; assay type: functional, cell-based; details: dose microM <=60, time 8.0 hrs
[7] = system: L02; assay: Cytotoxicity against human L02 cells assessed as reduction in cell viability upto 60 uM measured after 8 hrs by CCK8 assay; assay type: functional, cell-based; details: dose microM <=60, time 8.0 hrs
[8] = system: HUVEC; assay: Induction of angiogenesis in human HUVEC cells assessed as increase in cell migration rate upon UV light irradiation and measured after 12 to 24 hrs by cell scratch test; assay type: functional, cell-based; details: time 12-24 hrs
[9] = system: HUVEC; assay: Induction of angiogenesis in human HUVEC cells assessed as increase in tube formation upon exposure to UV light irradiation measured after 24 hrs; assay type: functional, cell-based
[10] = system: HepG2; assay: NO releasing activity in human HepG2 cells assessed as increase in red fluorescence intensity at 10 uM upon exposure to UV light irradiation for 10s by DAQ probe based fluorescence analysis; assay type: ADME, cell-based; details: hepg2, 10 s
[11] = system: HUVEC; assay: Induction of angiogenesis in human HUVEC cells assessed as increase in cell proliferation upto 60 uM upon exposure to UV light irradiation and measured after 8 hrs by CCK8 assay; assay type: functional, cell-based; details: dose microM <=60, time 8.0 hrs
[12] = system: Staphylococcus aureus; assay: Inhibition of biofilm formation in methicillin-resistant Staphylococcus aureus assessed as increase in planktonic bacteria at 10 uM upon exposure to UV light irradiation and measured after 48 hrs by NB plate based imaging analysis; assay type: functional, organism-based
[13] = system: Staphylococcus aureus; assay: Inhibition of biofilm formation in methicillin-resistant Staphylococcus aureus assessed as decrease in biofilm mass at 10 uM upon exposure to UV light irradiation and measured after 48 hrs in presence of levofloxacin by dilution plate coating method; assay type: functional; details: light or radiation study
[14] = system: Staphylococcus aureus; assay: Inhibition of biofilm formation in methicillin-resistant Staphylococcus aureus assessed as decrease in biofilm mass at 10 uM upon exposure to UV light irradiation and measured after 48 hrs by dilution plate coating method; assay type: functional; details: light or radiation study
[15] = system: Staphylococcus aureus; assay: Inhibition of biofilm formation in methicillin-resistant Staphylococcus aureus assessed as biofilm dispersal effect at 10 uM incubated for 5 hrs followed by exposure to UV light irradiation for 1 min in presence of levofloxacin by crystal violet staining based analysis; assay type: functional; set-up: scale not given: the % may be the effect or the level left; details: time 301 min, 5.017 h
[16] = system: Staphylococcus aureus; assay: Inhibition of biofilm formation in methicillin-resistant Staphylococcus aureus assessed as biofilm dispersal effect at 10 uM incubated for 5 hrs followed by exposure to UV light irradiation for 1 min by crystal violet staining based analysis; assay type: functional; set-up: scale not given: the % may be the effect or the level left; details: time 301 min, 5.017 h
[17] = system: Mus musculus; assay: Acceleration of wound healing in methicillin-resistant Staphylococcus aureus infected CD1 mouse assessed as increase in wound healing rate using UV light-irradiated compound at 10 uM, sc on days 0, 3, 7 and 14 in presence of 10 uM levofloxacin; assay type: functional, organism-based; details: time 15.0 day
[18] = system: Mus musculus; assay: (§1) Acceleration of wound healing in methicillin-resistant Staphylococcus aureus infected CD1 mouse assessed as boosted collagen deposition and granulation tissue in skin using UV light-irradiated compound at 10 uM, sc on days 0, 3, 7 and 14 and measured on day 14 by H and E staining based analysis; assay type: functional, organism-based; details: time 15.0 day
[19] = system: Mus musculus; assay: as §1, with “and 14 in presence of levofloxacin and measured” for “and 14 and measured”; assay type: functional, organism-based; details: time 15.0 day
[20] = NO releasing activity assessed as increase in fluorescence intensity upon exposure to UV light at 1 to 10 uM measured after 30 mins by fluorescence based analysis; assay type: functional; details: dose 1-10 µM
[21] = NO releasing activity upon exposure to UV light irradiation in presence of Hcy by fluorescence based analysis; assay type: functional
[22] = NO releasing activity upon exposure to UV light irradiation in presence of GSH by fluorescence based analysis; assay type: functional
[23] = NO releasing activity upon exposure to UV light irradiation in presence of Cys by fluorescence based analysis; assay type: functional
[24] = NO releasing activity at 20 uM upon exposure to UV light irradiation for 5 mins by EPR spectroscopy; assay type: functional
[25] = NO releasing activity in PBS buffer of 20% DMSO at 20 uM upon exposure to UV light irradiation by amperometric method; assay type: functional
[26] = NO releasing activity assessed as NO release efficiency at 10 uM by Griess assay relative to NaNO2; assay type: functional
[27] = NO releasing activity assessed as NO release efficiency at 20 uM by Griess assay relative to NaNO2; assay type: functional
[28] = NO releasing activity assessed as NO release efficiency at 40 uM by Griess assay relative to NaNO2; assay type: functional
[29] = NO releasing activity assessed as NO release efficiency at 60 uM by Griess assay relative to NaNO2; assay type: functional
[30] = NO releasing activity assessed as NO release efficiency at 80 uM by Griess assay relative to NaNO2; assay type: functional
[31] = NO releasing activity assessed as NO release efficiency at 100 uM by Griess assay relative to NaNO2; assay type: functional
[32] = NO releasing activity at 100 uM upon exposure to UV light irradiation by DAF-2 probe based fluorescence analysis; assay type: functional
[33] = NO releasing activity upon exposure to UV light irradiation at 50 to 70 degC measured after 4 to 8 hrs by fluorescence based analysis; assay type: functional; details: time 4-8 hrs
[34] = NO releasing activity upon exposure to UV light irradiation at pH 4 to 8 by fluorescence based analysis; assay type: functional
[35] = NO releasing activity in Tol solvent upon exposure to UV light irradiation by fluorescence based analysis; assay type: functional
[36] = NO releasing activity in Diox-solvent upon exposure to UV light irradiation by fluorescence based analysis; assay type: functional
[37] = NO releasing activity in EA solvent upon exposure to UV light irradiation by fluorescence based analysis; assay type: functional
[38] = NO releasing activity in TCM solvent upon exposure to UV light irradiation by fluorescence based analysis; assay type: functional
[39] = NO releasing activity in DMK solvent upon exposure to UV light irradiation by fluorescence based analysis; assay type: functional
[40] = NO releasing activity in CAN solvent upon exposure to UV light irradiation by fluorescence based analysis; assay type: functional
[41] = NO releasing activity in DMSO solvent upon exposure to UV light irradiation by fluorescence based analysis; assay type: functional
[42] = NO releasing activity in IPA solvent upon exposure to UV light irradiation by fluorescence based analysis; assay type: functional
[43] = NO releasing activity in MeOH solvent upon exposure to UV light irradiation by fluorescence based analysis; assay type: functional
[44] = NO releasing activity upon exposure to UV light irradiation at powers from 3 to 15 mW/cm2 by fluorescence based analysis; assay type: functional
[45] = NO releasing activity upon exposure to UV light irradiation in presence of Ala by fluorescence based analysis; assay type: functional
[46] = NO releasing activity upon exposure to UV light irradiation in presence of Phe by fluorescence based analysis; assay type: functional
[47] = NO releasing activity upon exposure to UV light irradiation in presence of Arg by fluorescence based analysis; assay type: functional
[48] = NO releasing activity upon exposure to UV light irradiation in presence of […] by fluorescence based analysis; assay type: functional
[49] = NO releasing activity upon exposure to UV light irradiation in presence of Trp by fluorescence based analysis; assay type: functional
[50] = NO releasing activity upon exposure to UV light irradiation in presence of Ser by fluorescence based analysis; assay type: functional
[51] = NO releasing activity upon exposure to UV light irradiation in presence of Asp by fluorescence based analysis; assay type: functional
[52] = NO releasing activity upon exposure to UV light irradiation in presence of His by fluorescence based analysis; assay type: functional
[53] = NO releasing activity upon exposure to UV light irradiation in presence of HClO by fluorescence based analysis; assay type: functional
[54] = NO releasing activity upon exposure to UV light irradiation in presence of Na2S by fluorescence based analysis; assay type: functional
[55] = NO releasing activity upon exposure to UV light irradiation in presence of NaSO4 by fluorescence based analysis; assay type: functional
[56] = system: RAW264.7; assay: Induction of angiogenesis in mouse RAW264.7 cells assessed as increase in cell proliferation upto 60 uM upon exposure to UV light irradiation and measured after 8 hrs by CCK8 assay; assay type: functional, cell-based; details: dose microM <=60, time 8.0 hrs
[57] = system: L02; assay: Induction of angiogenesis in human L02 cells assessed as increase in cell proliferation upto 60 uM upon exposure to UV light irradiation and measured after 8 hrs by CCK8 assay; assay type: functional, cell-based; details: dose microM <=60, time 8.0 hrs
[58] = system: L02; assay: NO releasing activity in human L02 cells assessed as increase in red fluorescence intensity at 10 uM upon exposure to UV light irradiation for 10s by DAQ probe based fluorescence analysis; assay type: ADME, cell-based; details: l02, 10 s
[59] = Stability of the compound in human HepG2 cells at 10 uM by DAQ probe based fluorescence analysis; assay type: ADME, cell-based; details: hepg2, 10 µM
[60] = Stability of the compound in human L02 cells at 10 uM by DAQ probe based fluorescence analysis; assay type: ADME, cell-based; details: l02, 10 µM
[61] = system: Staphylococcus aureus; assay: Inhibition of biofilm formation in methicillin-resistant Staphylococcus aureus assessed as increase in planktonic bacteria at 10 uM upon exposure to UV light irradiation and measured after 48 hrs in presence of levofloxacin by NB plate based imaging analysis; assay type: functional; set-up: scale not given: the % may be the effect or the level left
[62] = system: Staphylococcus aureus; assay: Antibacterial activity against methicillin-resisitant Staphylococcus aureus assessed as wrinkled bacterial membrane formation at 10 uM incubated for 5 hrs followed by exposure to UV light irradiation for 1 min in presence of levofloxacin by scanning electron microscopy; assay type: functional, organism-based; details: time 301.0 min
[63] = Toxicity in methicillin-resistant Staphylococcus aureus-infected CD1 mouse assessed as change in body weight using UV light-irradiated compound at 10 uM, sc on days 0, 3, 7 and 14; assay type: organism-based; details: in vivo, 360 h, time 15 day
[64] = system: Mus musculus; assay: Induction of angiogenesis in methicillin-resistant Staphylococcus aureus infected CD1 mouse assessed as increase in CD31 surface expression in skin by measuring increase in green fluorescence intensity using UV light-irradiated compound at 10 uM, sc on days 0, 3, 7 and 14 in presence of levofloxacin and measured on day 14 by immunofluorescence staining based analysis; assay type: functional, organism-based; details: time 15.0 day

## Cc1cc(=O)oc2cc(N(Cc3ccccc3[N+](=O)[O-])N=O)ccc12
[1]
  Drug metabolism: Metabolite detected
[2]
  Drug metabolism: Metabolite detected
[3]
  Drug metabolism: Metabolite detected
[4]
  Drug metabolism: Metabolite detected
[5]
  Activity: Active
[6]
  Activity: Active
[7]
  Activity: Active
[8]
  Activity: Active
[9]
  Activity: Active
[10]
  Drug metabolism: Metabolite_Detected
[11]
  Activity: Active
[12]
  Activity: Active
[13]
  inhibition at 10 µM: 54%
[14]
  inhibition at 10 µM: 28%
[15]
  Activity: 74%
[16]
  Activity: 15%
[17]
  Activity: Active
[18]
  Activity: Active
[19]
  Activity: Active
[20]
  Drug metabolism: Metabolite detected
[21]
  Drug metabolism: Metabolite detected
[22]
  Drug metabolism: Metabolite detected
[23]
  Drug metabolism: Metabolite detected
[24]
  Drug metabolism: Metabolite detected
[25]
  Drug metabolism: Metabolite detected
[26]
  Drug metabolism: 99%
[27]
  Drug metabolism: 99.2%
[28]
  Drug metabolism: 98.6%
[29]
  Drug metabolism: 96.9%
[30]
  Drug metabolism: 97.6%
[31]
  Drug metabolism: 93%
[32]
  Drug metabolism: Metabolite detected
[33]
  Drug metabolism: Metabolite detected
[34]
  Drug metabolism: Metabolite detected
[35]
  Drug metabolism: Metabolite detected
[36]
  Drug metabolism: Metabolite detected
[37]
  Drug metabolism: Metabolite detected
[38]
  Drug metabolism: Metabolite detected
[39]
  Drug metabolism: Metabolite detected
[40]
  Drug metabolism: Metabolite detected
[41]
  Drug metabolism: Metabolite detected
[42]
  Drug metabolism: Metabolite detected
[43]
  Drug metabolism: Metabolite detected
[44]
  Drug metabolism: Metabolite detected
[45]
  Drug metabolism: Metabolite detected
[46]
  Drug metabolism: Metabolite detected
[47]
  Drug metabolism: Metabolite detected
[48]
  Drug metabolism: Metabolite detected
[49]
  Drug metabolism: Metabolite detected
[50]
  Drug metabolism: Metabolite detected
[51]
  Drug metabolism: Metabolite detected
[52]
  Drug metabolism: Metabolite detected
[53]
  Drug metabolism: Metabolite detected
[54]
  Drug metabolism: Metabolite detected
[55]
  Drug metabolism: Metabolite detected
[56]
  Activity: Active
[57]
  Activity: Active
[58]
  Drug metabolism: Metabolite_Detected
[59]
  Stability: Stable
[60]
  Stability: Stable
[61]
  Activity: 160%
[62]
  Activity: Active
[63]
  Activity: Non-Toxic
[64]
  Activity: Active
